{"source": "ChEMBL document CHEMBL5338791", "about": "“Discovery of Novel 1,3-Diphenylpyrazine Derivatives as Potent S-Phase Kinase-Associated Protein 2 (Skp2) Inhibitors for the Treatment of Cancer” (J Med Chem, 2023)", "key": {"[1]": {"experiment": "Antitumor activity against human EC1 cells assessed as cell growth inhibition incubated for 72 hrs by MTT assay", "assay_type": "functional, cell-based", "details": "EC1, 72 h"}, "[2]": {"tested_on": "PC-3", "experiment": "Induction of apoptosis in human PC-3 cells assessed as nuclear fragmentation incubated for 48 hrs", "assay_type": "functional, cell-based", "details": "dose <= 10.0 µM"}, "[3]": {"experiment": "Toxicity in NOD-SCID mouse model xenografted with human MGC-803 cells assessed as change in kidney histology at 10 to 50 mg/kg, IG administered once every 2 days for 21 days by H and E staining based analysis", "assay_type": "organism-based", "details": "in vivo, po, 504 h, dose 10-50 mg/kg, time 21 day"}, "[4]": {"tested_on": "PC-3", "experiment": "Induction of apoptosis in human PC-3 cells assessed as necrotic cells at 2.5 uM incubated for 48 hrs by annexin V-FITC/PI staining based flow cytometry (reference value: 0.14 %)", "assay_type": "functional"}, "[5]": {"tested_on": "PC-3", "experiment": "Inhibition of cell migration in human PC-3 cells by transwell invasion assay", "assay_type": "functional, cell-based", "details": "dose <= 2.0 µM"}, "[6]": {"tested_on": "MGC-803", "experiment": "Induction of cell cycle arrest in human MGC-803 cells assessed as accumulation of cells at S phase at 10 uM incubated for 48 hrs by flow cytometry (reference value: 22.72 %)", "assay_type": "functional"}, "[7]": {"tested_on": "PC-3", "experiment": "Upregulation of p27 level in human PC-3 cells at 10 uM incubated upto 48 hrs by Western blot analysis", "assay_type": "functional, cell-based"}, "[8]": {"tested_on": "PC-3", "experiment": "Induction of cell cycle arrest in human PC-3 cells assessed as accumulation of cells at S phase at 10 uM incubated for 6 hrs by flow cytometry (reference value: 19.7 %)", "assay_type": "functional"}, "[9]": {"tested_on": "MGC-803", "experiment": "Antitumor activity against human MGC-803 cells assessed as cell growth inhibition incubated for 72 hrs by MTT assay", "assay_type": "functional, cell-based", "details": "MGC-803, 72 h"}, "[10]": {"experiment": "Metabolic stability in mouse liver S9 fraction assessed as half life at 20 umol/L preincubated for 5 mins followed by NADPH addition measured upto 60 mins by LC-MS/MS analysis", "assay_type": "ADME, subcellular", "details": "dose 20 µmol/L, time < 65 min"}, "[11]": {"tested_on": "MGC-803", "experiment": "Downregulation of Skp2 level in human MGC-803 cells incubated for 48 hrs by Western blot analysis", "assay_type": "functional, cell-based", "details": "dose <= 10.0 µM"}, "[12]": {"experiment": "Toxicity in NOD-SCID mouse model xenografted with human PC-3 cells assessed as change in lung histology at 10 to 50 mg/kg, IG administered once every 2 days for 21 days by H and E staining based analysis", "assay_type": "organism-based", "details": "in vivo, po, 504 h, dose 10-50 mg/kg, time 21 day"}, "[13]": {"tested_on": "PC-3", "experiment": "Antitumor activity against human PC-3 cells xenografted in NOD-SCID mouse model assessed as p27 accumulation at 10 to 50 mg/kg, IG administered once every 2 days for 21 days by Western blot analysis", "assay_type": "functional, organism-based", "details": "dose 10-50 mg/kg, time 21.0 day"}, "[14]": {"target": "S-phase kinase-associated protein 2 (Homo sapiens, UniProt Q13309)", "sequence (Q13309 whole entry)": "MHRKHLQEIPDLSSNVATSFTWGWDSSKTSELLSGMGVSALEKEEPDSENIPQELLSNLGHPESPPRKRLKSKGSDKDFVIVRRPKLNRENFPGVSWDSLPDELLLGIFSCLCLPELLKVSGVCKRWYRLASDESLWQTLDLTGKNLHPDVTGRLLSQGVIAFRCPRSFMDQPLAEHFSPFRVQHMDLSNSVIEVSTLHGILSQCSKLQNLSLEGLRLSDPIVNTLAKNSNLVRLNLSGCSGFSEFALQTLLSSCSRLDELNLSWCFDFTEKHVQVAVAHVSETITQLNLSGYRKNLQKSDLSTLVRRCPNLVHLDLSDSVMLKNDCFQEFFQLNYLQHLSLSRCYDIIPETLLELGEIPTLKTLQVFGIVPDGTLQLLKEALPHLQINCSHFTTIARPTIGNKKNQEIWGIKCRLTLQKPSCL", "experiment": "Inhibition of Skp2 in human MGC-803 cells treated with shRNA 5'-GGACCTATCGAACTCAGTTAT-3' incubated upto 48 hrs by Western blot analysis (reference value: 7 +/- 1.1 microM)", "assay_type": "cell-based"}, "[15]": {"tested_on": "MGC-803", "experiment": "Induction of cell cycle arrest in human MGC-803 cells assessed as accumulation of cells at G1 phase at 10 uM incubated for 6 hrs by flow cytometry (reference value: 57.09 %)", "assay_type": "functional"}, "[16]": {"tested_on": "PC-3", "experiment": "Induction of cell cycle arrest in human PC-3 cells assessed as accumulation of cells at G2 phase at 10 uM incubated for 6 hrs by flow cytometry (reference value: 19.34 %)", "assay_type": "functional"}, "[17]": {"tested_on": "MGC-803", "experiment": "Induction of cell cycle arrest in human MGC-803 cells assessed as accumulation of cells at G2 phase at 2.5 uM incubated for 48 hrs by flow cytometry (reference value: 21.35 %)", "assay_type": "functional"}, "[18]": {"tested_on": "MGC-803", "experiment": "Induction of apoptosis in human MGC-803 cells assessed as nuclear fragmentation incubated for 48 hrs", "assay_type": "functional, cell-based", "details": "dose <= 10.0 µM"}, "[19]": {"tested_on": "PC-3", "experiment": "Induction of apoptosis in human PC-3 cells assessed as necrotic cells at 5 uM incubated for 48 hrs by annexin V-FITC/PI staining based flow cytometry (reference value: 0.14 %)", "assay_type": "functional"}, "[20]": {"experiment": "Toxicity in NOD-SCID mouse model xenografted with human MGC-803 cells assessed as body weight change at 10 to 50 mg/kg, IG administered once every 2 days for 21 days", "assay_type": "organism-based", "details": "in vivo, po, 504 h, dose 10-50 mg/kg, time 21 day"}, "[21]": {"tested_on": "PC-3", "experiment": "Induction of apoptosis in human PC-3 cells assessed as viable cells at 5 uM incubated for 48 hrs by annexin V-FITC/PI staining based flow cytometry (reference value: 98.6 %)", "assay_type": "functional", "details": "read-out: Activity"}, "[22]": {"tested_on": "MGC-803", "experiment": "Induction of apoptosis in human MGC-803 cells assessed as early apoptotic cells at 5 uM incubated for 48 hrs by annexin V-FITC/PI staining based flow cytometry (reference value: 0.21 %)", "assay_type": "functional"}, "[23]": {"tested_on": "MGC-803", "experiment": "Induction of apoptosis in human MGC-803 cells assessed as early apoptotic cells at 2.5 uM incubated for 48 hrs by annexin V-FITC/PI staining based flow cytometry (reference value: 0.21 %)", "assay_type": "functional"}, "[24]": {"tested_on": "PC-3", "experiment": "Upregulation of p21 level in human PC-3 cells at 10 uM incubated upto 48 hrs by Western blot analysis", "assay_type": "functional, cell-based"}, "[25]": {"experiment": "Toxicity in NOD-SCID mouse model xenografted with human PC-3 cells assessed as change in kidney histology at 10 to 50 mg/kg, IG administered once every 2 days for 21 days by H and E staining based analysis", "assay_type": "organism-based", "details": "in vivo, po, 504 h, dose 10-50 mg/kg, time 21 day"}, "[26]": {"experiment": "Metabolic stability in rat liver microsome assessed as half life at 20 umol/L preincubated for 5 mins followed by NADPH addition measured upto 60 mins by LC-MS/MS analysis", "assay_type": "ADME", "details": "liver microsomes, dose 20 µmol/L, time < 65 min"}, "[27]": {"tested_on": "PC-3", "experiment": "Inhibition of colony formation in human PC-3 cells at 0.5 to 2 uM incubated for 10 days by crystal violet staining based microscopy", "assay_type": "functional, cell-based", "details": "dose 0.5-2 µM, time 10.0 day"}, "[28]": {"tested_on": "PC-3", "experiment": "Induction of cell cycle arrest in human PC-3 cells assessed as accumulation of cells at G2 phase at 10 uM incubated for 36 hrs by flow cytometry (reference value: 19.34 %)", "assay_type": "functional"}, "[29]": {"tested_on": "MGC-803", "experiment": "Induction of cell cycle arrest in human MGC-803 cells assessed as accumulation of cells at G2 phase at 10 uM incubated for 36 hrs by flow cytometry (reference value: 20.64 %)", "assay_type": "functional"}, "[30]": {"tested_on": "PC-3", "experiment": "Antitumor activity against human PC-3 cells xenografted in NOD-SCID mouse model assessed as tumor growth inhibition at 50 mg/kg, IG administered once every 2 days for 21 days relative to control", "assay_type": "functional", "details": "PC-3, po, 504 h, time 21 day, read-out: TGI"}, "[31]": {"tested_on": "MGC-803", "experiment": "Induction of cell cycle arrest in human MGC-803 cells assessed as accumulation of cells at G2 phase at 10 uM incubated for 12 hrs by flow cytometry (reference value: 20.64 %)", "assay_type": "functional"}, "[32]": {"experiment": "Half life in plasma of NOD-SCID mouse model xenografted with human PC-3 cells at 25 mg/kg, IG measured upto 48 hrs by LC-MS/MS analysis", "assay_type": "ADME, organism-based", "details": "po"}, "[33]": {"tested_on": "PC-3", "experiment": "Antitumor activity against human PC-3 cells xenografted in NOD-SCID mouse model assessed as tumor growth inhibition at 25 mg/kg, IG administered once every 2 days for 21 days relative to control", "assay_type": "functional", "details": "PC-3, po, 504 h, time 21 day, read-out: TGI"}, "[34]": {"tested_on": "PC-3", "experiment": "Induction of cell cycle arrest in human PC-3 cells assessed as accumulation of cells at G1 phase at 2.5 uM incubated for 48 hrs by flow cytometry (reference value: 57.39 %)", "assay_type": "functional"}, "[35]": {"tested_on": "MGC-803", "experiment": "Induction of cell cycle arrest in human MGC-803 cells assessed as accumulation of cells at S phase at 10 uM incubated for 12 hrs by flow cytometry (reference value: 20.41 %)", "assay_type": "functional"}}, "note": "The source made the active and inactive calls. The rule behind the calls is not given here."}
{"smiles": "O=C(CCl)NC1CCN(c2cnc(-c3ccccc3)c(-c3ccccc3)n2)CC1", "values": [{"measurement": "IC50", "setting": "[1]", "value": 7, "unit": "µM"}, {"measurement": "Activity", "setting": "[2]", "value": "Dose-Dependent Effect"}, {"measurement": "Activity", "setting": "[3]", "value": "Non-Toxic"}, {"measurement": "Activity", "setting": "[4]", "value": 1.86, "unit": "%"}, {"measurement": "inhibition", "setting": "[5]", "value": "Dose-Dependent Effect"}, {"measurement": "Activity", "setting": "[6]", "value": 45.07, "unit": "%"}, {"measurement": "Activity", "setting": "[7]", "value": "Active"}, {"measurement": "Activity", "setting": "[8]", "value": 28.11, "unit": "%"}, {"measurement": "IC50", "setting": "[9]", "value": 7, "unit": "µM"}, {"measurement": "half-life at 20 µM", "setting": "[10]", "value": 16.5, "unit": "min"}, {"measurement": "Activity", "setting": "[11]", "value": "Dose-Dependent Effect"}, {"measurement": "Activity", "setting": "[12]", "value": "Non-Toxic"}, {"measurement": "Activity", "setting": "[13]", "value": "Active"}, {"measurement": "IC50", "setting": "[14]", "value": 39.2, "unit": "µM"}, {"measurement": "Activity", "setting": "[15]", "value": 47.84, "unit": "%"}, {"measurement": "Activity", "setting": "[16]", "value": 19.87, "unit": "%"}, {"measurement": "Activity", "setting": "[17]", "value": 23.15, "unit": "%"}, {"measurement": "Activity", "setting": "[18]", "value": "Dose-Dependent Effect"}, {"measurement": "Activity", "setting": "[19]", "value": 5.15, "unit": "%"}, {"measurement": "Activity", "setting": "[20]", "value": "Non-Toxic"}, {"measurement": "viability at 5 µM", "setting": "[21]", "value": 82.5, "unit": "%"}, {"measurement": "Activity", "setting": "[22]", "value": 3.65, "unit": "%"}, {"measurement": "Activity", "setting": "[23]", "value": 2.85, "unit": "%"}, {"measurement": "Activity", "setting": "[24]", "value": "Active"}, {"measurement": "Activity", "setting": "[25]", "value": "Non-Toxic"}, {"measurement": "half-life at 20 µM", "setting": "[26]", "value": 16.3, "unit": "min"}, {"measurement": "inhibition", "setting": "[27]", "value": "Active"}, {"measurement": "Activity", "setting": "[28]", "value": 20.75, "unit": "%"}, {"measurement": "Activity", "setting": "[29]", "value": 19.76, "unit": "%"}, {"measurement": "inhibition in vivo at 50 mg/kg", "setting": "[30]", "value": 90.4, "unit": "%"}, {"measurement": "Activity", "setting": "[31]", "value": 18.63, "unit": "%"}, {"measurement": "half-life", "setting": "[32]", "value": 846, "unit": "min"}, {"measurement": "inhibition in vivo at 25 mg/kg", "setting": "[33]", "value": 71.9, "unit": "%"}, {"measurement": "Activity", "setting": "[34]", "value": 48.73, "unit": "%"}, {"measurement": "Activity", "setting": "[35]", "value": 31.88, "unit": "%"}]}
